Reference: US20140039044A1, “Hydroxylated Polymethoxyflavone Compositions” (WLLGEN, INC., priority 2006, published 2014)
Read-outs that look alike come from different tables or passages of the source.

Tests used:
Assay type in all cases: cell-based, human
HL-60 cells = test: Cell cycle distribution by flow cytometry; settings: 24 h; for Cell Cycle Distribution G0/G1 / Cell Cycle Distribution G2/M / Cell Cycle Distribution S: Table 10
Procedure: (§1) The human cancer cells (2×10^5) were cultured in 60-mm Petri dishes and incubated for 24 h. After treated with test compounds for 24 h, the cells were then harvested, washed with PBS resuspended in 200 μL of PBS, and fixed in 800 μL of iced 100% ethanol at −20° C. After being left to stand overnight, the cell pellets were collected by centrifugation, resuspended in 1 mL of hypotonic buffer (0.5% Triton X-100 in PBS and 0.5 μg/mL RNase) and incubated at 37° C. for 30 min. Next, 1 mL of propidium iodide solution (50 μg/mL) was added, and the mixture was allowed to stand on ice for 30 min. Fluorescence emitted from the propidium iodide-DNA complex was quantitated after excitation of the fluorescent dye by FACScan cytometry (Becton Dickinson, San Jose, Calif.).
The effects of the hydrolyzed PMF-enriched compositions, nobiletin and 70% PMF OPE on cell cycle distribution were studied, following the procedures described in Section 8.4. Results for cell cycle distribution in HL-60 cells, COLO205 cells and AGS cells are provided in Table 5, Table 6 and Table 7, respectively. […] In HL-60 cells, G2/M arrest predominated in cells treated with 6N PMF concentrations ≧5 μM and with 1N PMF concentrations ≧25 μM.
(§2) Compounds A-K were evaluated in terms of their effects in arresting cell cycle progression by observing cell cycle phase distribution in cells treated with the compounds. Cells were treated with 5, 10, 25, 50, and 100 μM of one of compound A-K or DMSO (control) for 24 h and subjected to flow cytometric analysis after staining their DNA, as described above.

HT-29 cells [1] = test: Cell cycle distribution by flow cytometry; settings: for Cell Cycle Distribution G0/G1 / Cell Cycle Distribution G2/M / Cell Cycle Distribution S: 24 h
Procedure: as §1, §2
Similar cell cycle phase distribution studies were performed in AGS, COLO205, and HT-29 cells in response to individual PMFs, with results reported in Tables 11, 12 and 13, respectively.

HT-29 cells [2] = test: Cell survival assay (antiproliferative IC50)
Procedure: Human colon carcinoma COLO205 and HT-29 cell lines (American Type Culture Collection (ATTC), Manassas, Va.) and the leukemia cell line HL-60 were maintained at 37° C. in 5% CO2 air in RPMI 1640 medium supplemented with 10% heat-inactivated fetal bovine serum (Gibco BRL, Grand Island, N.Y.), 100 units/mL penicillin, 100 μg/mL streptomycin and 2 mM 1-glutamine. The human gastric carcinoma AGS cell line (CCRC 60102), obtained from the Food Industry Research and Development Institute (Hsinchu, Taiwan), was maintained as described above, except that DMEM/F 12 was used as the medium rather than the RPMI 1640 medium. The human breast carcinoma MCF-7 cell line MCF-7 (ATTC) was cultured in RPMI 1640 medium supplemented with 5% fetal calf serum at 37° C. in a humidified atmosphere of 5% CO2 in air. The mouse macrophage cell line RAW 264.7 was maintained in RPMI 1640 supplemented with 100 U/ml penicillin, 100 μg/ml streptomycin, and 10% heat-inactivated fetal calf serum.
Cancer cells (2×10^5) were plated in 12-well Petri dishes. The next day, the medium was changed and treated with different concentration of the test compounds or compositions for 24 h. Where individual compounds were to be tested, stock solutions of the compound was prepared to contain 200 μM of the individual hydroxylated or non-hydroxylated PMF in dimethylsulfoxide (DMSO). Control cells were treated with DMSO to a final concentration of 0.05% (v/v). Depending on the objective of the particular experiment, cells were treating with test compound or composition for 1, 3 or 6 days. At the end of incubation, cells were harvested for cell count using a hemocytometer and measuring the cellular total nucleic acid content with the CyQUANT Cell Proliferation Assay Kit (Molecular Probes).
The PMF compounds were assayed in vitro for cell growth inhibition and for their ability to induce apoptosis in various human cancer cells, including HL-60, AGS, COLO 205, and HT-29 cells, using methods described in Section 8.4 above. Antiproliferative (IC50) and apoptosis-inducing activity (AC50) of PMFs in the HL-60, AGS, COLO 205, and HT-29 cells are reported in Table 9, where *P<0.05, **P<0.01 and ***P<0.001 indicate statistically significant differences from the control group.

SMILES: COc1ccc(-c2oc3c(OC)c(OC)c(OC)c(OC)c3c(=O)c2OC)cc1OC [D, 3,5,6,7,8,3,4-heptamethoxyflavone, reference compound]
- Cell Cycle Distribution G0/G1 (HL-60 cells; 5 μM): 50.66 ± 1.20
- Cell Cycle Distribution G2/M (HL-60 cells; 5 μM): 4.88 ± 0.49
- Cell Cycle Distribution S (HL-60 cells; 5 μM): 44.46 ± 0.49
- Cell Cycle Distribution G0/G1 (HL-60 cells; 10 μM): 52.79 ± 0.99
- Cell Cycle Distribution G2/M (HL-60 cells; 10 μM): 5.09 ± 0.35
- Cell Cycle Distribution S (HL-60 cells; 10 μM): 42.12 ± 0.49
- Cell Cycle Distribution G0/G1 (HL-60 cells; 25 μM): 57.63 ± 0.14
- Cell Cycle Distribution G2/M (HL-60 cells; 25 μM): 0.09 ± 0.71
- Cell Cycle Distribution S (HL-60 cells; 25 μM): 42.28 ± 0.57
- Cell Cycle Distribution G0/G1 (HL-60 cells; 50 μM): 80.79 ± 0.71
- Cell Cycle Distribution G2/M (HL-60 cells; 50 μM): 0.21 ± 0.42
- Cell Cycle Distribution S (HL-60 cells; 50 μM): 19.00 ± 0.78
- Cell Cycle Distribution G0/G1 (HL-60 cells; 100 μM): 84.06 ± 0.57
- Cell Cycle Distribution G2/M (HL-60 cells; 100 μM): 0.47 ± 0.21
- Cell Cycle Distribution S (HL-60 cells; 100 μM): 15.47 ± 1.06
- Cell cycle arrest, in words (HL-60 cells; 25-100 μM): significant G1 arrest
- Cell Cycle Distribution G0/G1 (HT-29 cells [1]; 5 μM): 67.79 ± 0.17
- Cell Cycle Distribution G2/M (HT-29 cells [1]; 5 μM): 7.56 ± 0.23
- Cell Cycle Distribution S (HT-29 cells [1]; 5 μM): 24.66 ± 0.06
- Cell Cycle Distribution G0/G1 (HT-29 cells [1]; 10 μM): 57.61 ± 0.69
- Cell Cycle Distribution G2/M (HT-29 cells [1]; 10 μM): 10.41 ± 0.45
- Cell Cycle Distribution S (HT-29 cells [1]; 10 μM): 30.98 ± 1.18
- Cell Cycle Distribution G0/G1 (HT-29 cells [1]; 25 μM): 76.11 ± 1.56
- Cell Cycle Distribution G2/M (HT-29 cells [1]; 25 μM): 9.04 ± 2.77
- Cell Cycle Distribution S (HT-29 cells [1]; 25 μM): 14.89 ± 1.21
- Cell Cycle Distribution G0/G1 (HT-29 cells [1]; 50 μM): 77.31 ± 2.82
- Cell Cycle Distribution G2/M (HT-29 cells [1]; 50 μM): 12.21 ± 0.74
- Cell Cycle Distribution S (HT-29 cells [1]; 50 μM): 20.49 ± 2.09
- Cell Cycle Distribution G0/G1 (HT-29 cells [1]; 100 μM): 80.66 ± 0.01
- Cell Cycle Distribution G2/M (HT-29 cells [1]; 100 μM): 3.79 ± 0.43
- Cell Cycle Distribution S (HT-29 cells [1]; 100 μM): 15.57 ± 0.43
- Cell cycle arrest, in words (HT-29 cells [1]; 5-100 μM, 24 h exposure): significant accumulation of cells in G1 phase
- IC50 (HT-29 cells [2]): > 100 µM

SMILES: COc1cc(-c2cc(=O)c3c(O)c(OC)c(OC)c(OC)c3o2)cc(OC)c1OC [E, 5-hydroxy-6,7,8,3′,4′,5′-hexamethoxyflavone]
- Cell Cycle Distribution G0/G1 (HL-60 cells; 5 μM): 40.16 ± 1.10
- Cell Cycle Distribution G2/M (HL-60 cells; 5 μM): 6.01 ± 1.64
- Cell Cycle Distribution S (HL-60 cells; 5 μM): 53.83 ± 0.54
- Cell Cycle Distribution G0/G1 (HL-60 cells; 10 μM): 40.43 ± 2.14
- Cell Cycle Distribution G2/M (HL-60 cells; 10 μM): 5.57 ± 1.17
- Cell Cycle Distribution S (HL-60 cells; 10 μM): 54.01 ± 0.98
- Cell Cycle Distribution G0/G1 (HL-60 cells; 25 μM): 41.35 ± 2.50
- Cell Cycle Distribution G2/M (HL-60 cells; 25 μM): 6.27 ± 1.05
- Cell Cycle Distribution S (HL-60 cells; 25 μM): 52.38 ± 1.46
- Cell Cycle Distribution G0/G1 (HL-60 cells; 50 μM): 37.64 ± 1.09
- Cell Cycle Distribution G2/M (HL-60 cells; 50 μM): 7.73 ± 0.62
- Cell Cycle Distribution S (HL-60 cells; 50 μM): 54.64 ± 0.49
- Cell Cycle Distribution G0/G1 (HL-60 cells; 100 μM): 42.95 ± 0.11
- Cell Cycle Distribution G2/M (HL-60 cells; 100 μM): 7.27 ± 0.84
- Cell Cycle Distribution S (HL-60 cells; 100 μM): 49.79 ± 0.95
- Cell Cycle Distribution G0/G1 (HT-29 cells [1]; 5 μM): 57.96 ± 0.21
- Cell Cycle Distribution G2/M (HT-29 cells [1]; 5 μM): 10.19 ± 0.07
- Cell Cycle Distribution S (HT-29 cells [1]; 5 μM): 31.85 ± 0.14
- Cell Cycle Distribution G0/G1 (HT-29 cells [1]; 10 μM): 57.86 ± 0.31
- Cell Cycle Distribution G2/M (HT-29 cells [1]; 10 μM): 10.01 ± 0.46
- Cell Cycle Distribution S (HT-29 cells [1]; 10 μM): 32.14 ± 0.78
- Cell Cycle Distribution G0/G1 (HT-29 cells [1]; 25 μM): 59.20 ± 0.06
- Cell Cycle Distribution G2/M (HT-29 cells [1]; 25 μM): 9.63 ± 0.69
- Cell Cycle Distribution S (HT-29 cells [1]; 25 μM): 31.18 ± 0.74
- Cell Cycle Distribution G0/G1 (HT-29 cells [1]; 50 μM): 58.95 ± 0.95
- Cell Cycle Distribution G2/M (HT-29 cells [1]; 50 μM): 9.26 ± 0.16
- Cell Cycle Distribution S (HT-29 cells [1]; 50 μM): 31.79 ± 1.12
- Cell Cycle Distribution G0/G1 (HT-29 cells [1]; 100 μM): 61.79 ± 1.47
- Cell Cycle Distribution G2/M (HT-29 cells [1]; 100 μM): 8.79 ± 1.23
- Cell Cycle Distribution S (HT-29 cells [1]; 100 μM): 29.42 ± 0.24
- IC50 (HT-29 cells [2]; Homo sapiens): > 100 µM
